The subject of the test is HCV. In words: Inhibition of HCV infection of cryopreserved human fetal liver cells (cell-associated HCV RNA by multiplex RT-PCR). Type of test: cell-based. To be noted: VX-950 at 0.2 uM or greater; cryopreserved human fetal liver cells in HDM2; 15 hours inoculation plus additional 47 hours incubation. On the procedure:
FIG. 3 depicts the inhibition of HCV infection of cryopreserved human fetal liver cells by the HCV NS3·4a protease inhibitor VX-950 (see WO 02/18369).
Cryopreserved human fetal liver cells were thawed and allowed to adhere to wells of a collagen coated 96-well plate for 6 hours at 37° C. Non-adherent cells were removed and medium replaced with hormonally defined medium containing DMEM, BSA, nicotinamide, EGF, insulin, transferrin, and hydrocortisone (HDM2). The wells were inoculated with HCV in the presence of different concentrations of VX-950 and incubated for 15 hours at 37° C. The non-adsorbed virus was removed, the cultures washed twice with DMEM, then fresh HDM2 containing the same concentration of VX-950 was added. After incubation for an additional 47 hours, the wells were rinsed twice with PBS then the cells lysed with chaotropic buffer and RNA isolated using the Qiagen 96-well RNeasy procedure. HCV RNA was quantitated using the multiplex RT-PCR method and the mean and standard deviation of the triplicate samples at each concentration of inhibitor are presented (HCV copy number per well). […] See, FIG. 3.

For the compound `CCC[C@H](NC(=O)C1[C@H]2CCC[C@H]2CN1C(=O)[C@@H](NC(=O)[C@@H](NC(=O)c1cnccn1)C1CCCCC1)C(C)(C)C)C(=O)C(=O)NC1CC1` (stereo partly shown) [VX-950], the “inhibition of HCV replication (HCV RNA copy number per well)” value was “nearly complete inhibition of HCV replication”.

Source of the values: patent US20050287514A1, “Compositions and methods useful for HCV infection” (Vertex Pharmaceuticals Incorporated, priority 2003, published 2005).
